Reference: PMC3340335, “Differential Scanning Fluorometry Signatures as Indicators of Enzyme Inhibitor Mode of Action: Case Study of Glutathione S-Transferase” (PLoS ONE, 2012)
Where two headings read alike, the source gives them in different places. Each block holds one molecule with its values, some of them ahead of it.

What was measured:
SjGST [1] = biological target: T1, SjGST (Schistosoma japonicum, UniProt P08515); test: SjGST luciferase-coupled luminescence enzymatic assay (PBI 1155 substrate, 100 µM GSH); type: biochemical; details: for inhibition at 58 µM: read-out: % Inhibition at 58 μM against SjGST
T1 construct: purchased GenScript (Piscataway, NJ)
Procedure: Compound inhibitory activities were evaluated using a previously reported GST enzymatic assay. Three µl of reagents (5 nM final concentration of SjGST (or buffer serving as a no-enzyme control) plus 100 µM final concentration of GSH) were dispensed into 1536-well Greiner white solid-bottom assay plates. Compounds (23 nL) were transferred via Kalypsys pintool equipped with 1,536-pin array. The plates were incubated at room temperature for 15 min before the addition of 20 µM substrate PBI 1155 to initiate the reaction. The plates were centrifuged at 1000 rpm for 15 s and incubated at room temperature for 40 min before the addition 4 µl luciferin detection reagent followed by another 15-s centrifugation at 1000 rpm and 15-min incubation. The plates were then read on ViewLux high-throughput CCD imager (PerkinElmer, Waltham, MA) with a clear emission filter and under standard luminescence settings. Percent inhibition was calculated based on the enzyme-containing and no-enzyme controls using Excel and GraphPad Prism 4.

SjGST [2] = biological target: T1, SjGST; test: biochemical; type: binding; details: for Difference in thermal shift between GSH-present (2 mM) and GSH-absent curves at top compound concentration / ΔTm at 200 µM: 200 µM compound; for Difference in thermal shift between GSH-present (2 mM) and GSH-absent curves at top compound concentration / ΔTm at 200 µM / Difference in thermal shift between GSH-present (2 mM) and GSH-absent curves across compound concentrations: 2 mM GSH versus no GSH; for ΔTm at 200 µM: read-out: Difference in thermal shift between GSH-present (2 mM) and GSH-absent curves at top compound concentration; for Thermal shift (ΔTm versus vehicle control) of SjGST: absence of GSH, top compound concentration, 200 µM, 1 µM SjGST; for Difference in thermal shift between GSH-present (2 mM) and GSH-absent curves across compound concentrations: across all concentrations up to 200 µM
Procedure: Compounds were diluted (1∶2, 7-points) in DMSO row-wise down to 10 µM in a 96-well polypropylene round bottom mother plate, with DMSO alone in the first column of each plate. […] The PCR plates were centrifuged at 1000 rpm for 10 s to ensure good mixing, and sealed with Optical-Quality Sealing Tape (Bio-Rad). […] The mid temperature of the protein thermal melt profiles, Tm, was determined using EXCEL-based custom calculation software available at (ftp://ftp.sgc.ox.ac.uk/pub/biophysics), and fitting of the data to the Boltzmann equation was performed using GraphPad Prism 4. The differences in Tm between vehicle control and compound-containing samples were calculated as thermal shift.

hGST A1-1 = biological target: T2, hGST A1-1 (Homo sapiens, UniProt P08263); test: Thermal shift assay (DSF) with hGST A1-1; type: binding; details: concentration-response, Fig. 7A-C
T2 construct: purchased Oxford Biomedical Research (Oxford, MI)
T2 sequence (P08263 1-222): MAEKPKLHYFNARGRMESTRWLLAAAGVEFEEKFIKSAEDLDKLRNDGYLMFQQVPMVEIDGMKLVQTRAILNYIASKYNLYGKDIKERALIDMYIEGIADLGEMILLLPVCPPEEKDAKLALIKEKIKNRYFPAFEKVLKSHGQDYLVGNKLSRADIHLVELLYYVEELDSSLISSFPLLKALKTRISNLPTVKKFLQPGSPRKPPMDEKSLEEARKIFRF
Procedure: (§1) Compounds were diluted (1∶2, 7-points) in DMSO row-wise down to 10 µM in a 96-well polypropylene round bottom mother plate, with DMSO alone in the first column of each plate. […] The PCR plates were centrifuged at 1000 rpm for 10 s to ensure good mixing, and sealed with Optical-Quality Sealing Tape (Bio-Rad). The plates were subsequently heated approximately 2 min after sample mixing, on an iQ5 thermal cycler at intervals of 1°C from 20 to 95°C, with a ramping rate of 6°C min^−1. The set-up of the filter configurations was customized to accommodate the optimal excitation and emission wavelengths for SYPRO Orange (Ex: 490/Em: 575 nm). The mid temperature of the protein thermal melt profiles, Tm, was determined using EXCEL-based custom calculation software available at (ftp://ftp.sgc.ox.ac.uk/pub/biophysics), and fitting of the data to the Boltzmann equation was performed using GraphPad Prism 4. The differences in Tm between vehicle control and compound-containing samples were calculated as thermal shift.
(§2) The study was subsequently extended to human GST isozymes by testing one representative compound from each category against hGST A1 and M1 (hGST P1 was not pursued due to the protein's lack of clear melt transition, data not shown).

hGST M1-1 = biological target: T3, hGST M1-1 (Homo sapiens, UniProt P09488); test: Thermal shift assay (DSF) with hGST M1-1; type: binding; details: concentration-response, Fig. 7D-F
T3 construct: purchased Oxford Biomedical Research (Oxford, MI)
T3 sequence (P09488 1-218): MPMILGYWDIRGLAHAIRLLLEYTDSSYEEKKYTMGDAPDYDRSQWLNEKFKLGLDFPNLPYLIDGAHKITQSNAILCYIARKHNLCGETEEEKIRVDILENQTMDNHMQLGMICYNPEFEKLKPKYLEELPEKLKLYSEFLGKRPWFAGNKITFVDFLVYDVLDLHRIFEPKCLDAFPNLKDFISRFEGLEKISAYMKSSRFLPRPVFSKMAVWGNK
Procedure: as §1, §2

[3] = 5 nM SjGST, 100 µM GSH, 20 µM PBI 1155, read-out: IC50 against SjGST

T1 sequence (P08515 whole entry): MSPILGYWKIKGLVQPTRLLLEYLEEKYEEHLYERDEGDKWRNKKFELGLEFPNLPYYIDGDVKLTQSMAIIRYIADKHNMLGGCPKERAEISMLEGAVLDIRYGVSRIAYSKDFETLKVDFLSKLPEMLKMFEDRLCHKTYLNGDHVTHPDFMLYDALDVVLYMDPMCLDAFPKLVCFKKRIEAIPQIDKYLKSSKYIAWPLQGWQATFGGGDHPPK

SMILES: CCCCCCSC[C@H](NC(=O)CC[C@H](N)C(=O)O)C(=O)NCC(=O)O [S-hexyl GSH, S-hexyl glutathione]
inhibition at 58 µM (SjGST [1]): 58%
Difference in thermal shift between GSH-present (2 mM) and GSH-absent curves at top compound concentration (SjGST [2]): 1.8 °C

SMILES: NC(CCC(=O)NC(CSc1ccc(C(=O)OCCOCCOCCOCCOC(=O)c2ccc(SCC(NC(=O)CCC(N)C(=O)O)C(=O)NCC(=O)O)c([N+](=O)[O-])c2)cc1[N+](=O)[O-])C(=O)NCC(=O)O)C(=O)O (stereo not shown) [Bis-(NB-GS)]
IC50 (SjGST [1]; [3]): 670 nM
Fold greater inhibitory potency of Bis-(NB-GS) versus NBD-GS (SjGST [1]; ratio of IC50 values, 0.67 µM versus 2.3 µM): over 3 fold
ΔTm at 200 µM (SjGST [2]): 1.2 °C
Thermal shift (ΔTm versus vehicle control) of SjGST (SjGST [2]): 11.1 °C

IC50 (SjGST [1]; [3]): 2300 nM
ΔTm at 200 µM (SjGST [2]): 4 °C
Thermal shift (ΔTm versus vehicle control) of SjGST (SjGST [2]): 5.9 °C
SMILES: NC(CCC(=O)NC(CSc1ccc([N+](=O)[O-])c2nonc12)C(=O)NCC(=O)O)C(=O)O (stereo not shown) [NBD-GS]

SMILES: O=c1c(O)c(-c2cc(O)c(O)c(O)c2)oc2cc(O)cc(O)c12 [Myricetin, myricetin]
IC50 (SjGST [1]): 6600 nM
Thermal shift (ΔTm versus vehicle control) of SjGST (SjGST [2]): over 3 °C
Difference in thermal shift between GSH-present (2 mM) and GSH-absent curves across compound concentrations (SjGST [2]): approximately 4 °C

SMILES: C=C(CC)C(=O)c1ccc(OCC(=O)O)c(Cl)c1Cl [Ethacrynic acid, ethacrynic acid]
IC50 (SjGST [1]; [3]): 140 nM
Glutathione-dependency trend of thermal shift curves (with versus without 2 mM GSH) (hGST A1-1): diverging trend
Glutathione-dependency trend of thermal shift curves (with versus without 2 mM GSH) (hGST M1-1): diverging trend
ΔTm at 200 µM (SjGST [2]): 11.5 °C
Thermal shift (ΔTm versus vehicle control) of SjGST (SjGST [2]): 1.8 °C

ΔTm at 2000 µM (SjGST [2]; 2 mM GSH, at low compound concentrations, read-out: Enhancement in thermal shift baseline due to GSH): ~4 °C
SMILES: N[C@@H](CCC(=O)N[C@@H](CS)C(=O)NCC(=O)O)C(=O)O [GSH, γ-Glu-Cys-Gly]

IC50 (SjGST [1]; [3]): 660 nM
ΔTm at 200 µM (SjGST [2]): 10.5 °C
SMILES: O=[N+]([O-])c1ccc(SCCCCCCCCO)c2nonc12 [NBD-8-OH]
Thermal shift (ΔTm versus vehicle control) of SjGST (SjGST [2]): failed to display any significant thermal stabilization effect

SMILES: CSC[C@H](NC(=O)CC[C@H](N)C(=O)O)C(=O)NCC(=O)O [S-methyl GSH, S-methyl glutathione]
Inhibition of SjGST at concentrations up to 200 µM (SjGST [1]; tested up to 200 µM): did not show detectable inhibition
Thermal shift (ΔTm versus vehicle control) of SjGST (SjGST [2]): < 2 °C

SMILES: CCCCCCCCSC[C@H](NC(=O)CC[C@H](N)C(=O)O)C(=O)NCC(=O)O [S-octyl GSH, S-octyl glutathione]
inhibition at 58 µM (SjGST [1]): 83%
Glutathione-dependency trend of thermal shift curves (with versus without 2 mM GSH) (hGST A1-1): converging trend
Glutathione-dependency trend of thermal shift curves (with versus without 2 mM GSH) (hGST M1-1): converging trend
Difference in thermal shift between GSH-present (2 mM) and GSH-absent curves at top compound concentration (SjGST [2]): 0.45 °C

SMILES: CCCCSC[C@H](NC(=O)CC[C@H](N)C(=O)O)C(=O)NCC(=O)O [S-butyl GSH, S-butyl glutathione]
inhibition at 58 µM (SjGST [1]): 35%
Difference in thermal shift between GSH-present (2 mM) and GSH-absent curves at top compound concentration (SjGST [2]): 1.8 °C

SMILES: O=c1c(O)c(-c2ccc(O)c(O)c2)oc2cc(O)cc(O)c12 [Quercetin, quercetin]
IC50 (SjGST [1]; [3]): 5000 nM
Glutathione-dependency trend of thermal shift curves (with versus without 2 mM GSH) (hGST A1-1): parallel trend
Glutathione-dependency trend of thermal shift curves (with versus without 2 mM GSH) (hGST M1-1): parallel trend
Thermal shift (ΔTm versus vehicle control) of SjGST (SjGST [2]): over 3 °C
Difference in thermal shift between GSH-present (2 mM) and GSH-absent curves across compound concentrations (SjGST [2]): approximately 4 °C
